From ChEMBL document CHEMBL2176980, “Influence of chlorine or fluorine substitution on the estrogenic properties of 1-alkyl-2,3,5-tris(4-hydroxyphenyl)-1H-pyrroles” (J Med Chem, 2012)
Activity calls are given as the source filed them. The calls are words filed in the database; no cut-off is given here.

Assays:
[1] = biological target: T1, Estrogen receptor (Homo sapiens) (UniProt P03372); test: Antagonist activity at ERalpha in human MCF7/2a cells assessed as reduction in 1 nM estradiol-induced receptor activation by luciferase reporter gene assay relative to untreated control; assay type: functional, cell-based
T1 sequence (whole entry): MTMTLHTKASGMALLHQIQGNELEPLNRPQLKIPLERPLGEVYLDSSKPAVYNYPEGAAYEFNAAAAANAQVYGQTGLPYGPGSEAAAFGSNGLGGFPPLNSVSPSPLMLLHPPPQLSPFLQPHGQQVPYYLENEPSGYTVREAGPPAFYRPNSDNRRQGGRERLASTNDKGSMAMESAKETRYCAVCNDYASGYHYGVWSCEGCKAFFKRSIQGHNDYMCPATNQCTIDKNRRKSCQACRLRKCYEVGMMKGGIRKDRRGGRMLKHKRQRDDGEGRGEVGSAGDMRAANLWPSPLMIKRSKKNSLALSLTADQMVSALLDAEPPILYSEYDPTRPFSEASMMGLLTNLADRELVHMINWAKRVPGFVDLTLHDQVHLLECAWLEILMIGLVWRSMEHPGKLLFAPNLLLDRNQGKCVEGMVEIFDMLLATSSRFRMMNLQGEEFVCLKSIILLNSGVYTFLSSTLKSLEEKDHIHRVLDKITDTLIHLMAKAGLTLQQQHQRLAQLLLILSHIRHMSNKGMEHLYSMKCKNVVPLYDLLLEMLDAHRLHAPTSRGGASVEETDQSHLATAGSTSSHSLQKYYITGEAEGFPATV

[2] = biological target: T2, Estrogen receptor (Homo sapiens, UniProt P03372); test: Activation of human ERalpha expressed in human U2-OS cells by luciferase reporter gene assay relative to untreated control; assay type: cell-based, U2OS
T2 sequence (P03372 whole entry): T1 sequence (whole entry)

[3] = biological target: T2, Estrogen receptor; test: Activation of ERalpha in human MCF7/2a cells by luciferase reporter gene assay relative to untreated control; assay type: cell-based
[4] = system: MCF7; test: Down regulation of ERalpha human MCF7 cells at 10 uM by Western blotting; assay type: functional, cell-based
[5] = system: MCF7; test: Cytotoxicity in hormone-dependent human MCF7 cells assessed as growth inhibition incubated for 4 day s by crystal violet assay; assay type: functional, cell-based; conditions: MCF7, 96 h
[6] = system: MCF7; test: Stimulation of cell growth in human MCF7 cells incubated for 20 to 100 hrs by crystal violet assay; assay type: cell-based
[7] = Chemical stability in pH 7.3 PBS buffer at 10 uM at 37 degC; assay type: physicochemical
[8] = biological target: T1, Estrogen receptor (Homo sapiens); test: Activation of ERalpha in human MCF7/2a cells in presence of 0.1 uM 4-OHT by luciferase reporter gene assay relative to untreated control; assay type: cell-based
[9] = biological target: T1, Estrogen receptor (Homo sapiens); test: Activation of ERalpha in human MCF7/2a cells pre-exposed to compound 1 to 3 hrs before 0.1 uM 4-OHT addition by luciferase reporter gene assay relative to untreated control; assay type: cell-based
[10] = Toxicity in hormone-independent human MDA-MB-231 cells assessed as growth inhibition incubated for 4 day s by crystal violet assay; assay type: cell-based

SMILES	EC50 [2] [nM]	EC50 [3] [nM]	half-life at 10 µM [7] [days]	Activity [8]	Activity [9]	Activity [1]	Activity [4]	IC50 [5] [nM]	Activity [6]	IC50 at 4 days [10] [nM]
Cn1c(-c2ccc(O)cc2)cc(-c2ccc(O)cc2)c1-c1ccc(O)cc1Cl	16	600	–	–	–	inactive	Active	19100	–	–
Cn1c(-c2ccc(O)cc2F)cc(-c2ccc(O)cc2)c1-c1ccc(O)cc1F	15	290	–	–	–	inactive	Active	8500	Non-toxic	–
CCCc1c(-c2ccc(O)cc2)nn(-c2ccc(O)cc2)c1-c1ccc(O)cc1 [PROPYLPYRAZOLETRIOL]	0.1	3	–	–	–	–	Active	27200	–	–
Cn1c(-c2ccc(O)cc2F)cc(-c2ccc(O)cc2)c1-c1ccc(O)cc1	24	–	–	–	–	inactive	inactive	25500	–	–
CCCn1c(-c2ccc(O)cc2F)cc(-c2ccc(O)cc2F)c1-c1ccc(O)cc1F	0.2	23	44	–	–	inactive	Active	5600	Non-toxic	21900
Cn1c(-c2ccc(O)cc2Cl)cc(-c2ccc(O)cc2)c1-c1ccc(O)cc1	100	–	–	–	–	inactive	inactive	23800	–	–
Cn1c(-c2ccc(O)cc2)cc(-c2ccc(O)cc2)c1-c1ccc(O)cc1F	60	–	–	–	–	inactive	inactive	24700	–	–

The next lines start with results.

EC50 [2] [nM]	EC50 [3] [nM]	half-life at 10 µM [7] [days]	Activity [8]	Activity [9]	SMILES	Activity [1]	Activity [4]	IC50 [5] [nM]	Activity [6]	IC50 at 4 days [10] [nM]
0.67	240	–	–	–	CCCn1c(-c2ccc(O)cc2F)cc(-c2ccc(O)cc2)c1-c1ccc(O)cc1	inactive	Active	–	–	–
47	–	61.4	–	–	CCCn1c(-c2ccc(O)cc2Cl)cc(-c2ccc(O)cc2)c1-c1ccc(O)cc1	inactive	Active	–	–	–
0.31	63	–	–	–	CCCn1c(-c2ccc(O)cc2)cc(-c2ccc(O)cc2)c1-c1ccc(O)cc1Cl	inactive	Active	–	–	–
1.6	70	7.04	inactive	Active	CCCc1c(-c2ccc(O)cc2)cn(-c2ccc(O)cc2)c1-c1ccc(O)cc1	–	–	–	–	–
0.12	70	31	–	–	CCCn1c(-c2ccc(O)cc2)cc(-c2ccc(O)cc2)c1-c1ccc(O)cc1F	inactive	Active	–	–	–
0.27	30	–	inactive	Active	CCCn1c(-c2ccc(O)cc2F)cc(-c2ccc(O)cc2)c1-c1ccc(O)cc1F	inactive	Active	–	–	20900
0.84	26	–	–	–	CCCn1c(-c2ccc(O)cc2)cc(-c2ccc(O)cc2F)c1-c1ccc(O)cc1	inactive	Active	–	–	–
0.4	50	10.7	inactive	Active	CCCn1c(-c2ccc(O)cc2)cc(-c2ccc(O)cc2)c1-c1ccc(O)cc1	–	–	–	–	–
